Ends that are not written are not given here.
Experiments:
[1] = tested on: tested plant pathogens; test: Microdilution assay, activity summarised over several tested plant pathogens; type: cell-based; settings: Table S5, strains listed under strain specificity
Description: In-vitro inhibition assays were performed in sterile flat-bottom 96-well polypropylene-plates (Greiner bio-one, Frickenhausen, Germany). 10 µl (antibacterial assay) or 20 µl (antifungal assay) of each concentration were loaded per well. Fresh bacterial colonies were transferred into LB-medium, grown to an OD600 nm of 0.08–0.1 and diluted 1∶100 with medium. 90 µl of this suspension containing about 10^5 CFU/ml of bacteria were added to each well resulting in final peptide concentrations from 0 to 100 µg/ml. After incubation at 27°C for 1–2d bacterial growth was analyzed by measuring the OD590 nm using a Tecan Genios microplate reader (Crailsheim, Germany).
Spores of plant pathogenic fungi were collected by washing sporulating cultures with water. Spore concentration was determined by haematocytometer and adjusted to 1.5–2×10^3 spores/ml in 2% malt extract medium. 80 µl of fungal spores were added per well resulting in final peptide concentrations from 0 to 100 µg/ml. After incubation at room temperature for 3d on a rotary shaker (300 rpm), fungal growth was determined by measuring the OD590 nm (Alternaria sp.) or by visual screening of the plates (Botrytis sp., Cladosporium sp.). The lowest peptide concentration, where no visible microbial growth could be detected, was determined for each organism-peptide combination and referred to as the minimal inhibitory concentration (MIC). At least two independent replicates were performed.

[2] = tested on: human erythrocytes; test: Hemolytic activity (hemoglobin release); type: cell-based
Description: The hemolytic activity of the peptides was evaluated by determining hemoglobin release of suspensions of fresh human erythrocytes at 405 nm. Human red blood cells (Deutscher Blutspendedienst, München, Germany) were centrifuged and washed three times with Tris-buffer (10 mM Tris, 150 mM NaCl, pH 7.4). 80 µl of cells (1.5×10^9 cells/ml) were added to 20 µl of the peptide solution in 96-well plates and incubated for 45 min at 37°C. Final peptide concentrations were 0, 20, 50, 100 and 200 µg/ml. After centrifugation (1,500 g, 5 min, 20°C) 30 µl aliquots of the supernatant were transferred to 96-well plates containing 100 µl of water and released hemoglobin was determined using a microplate reader (OD405 nm). 100% hemolysis was determined with 2% SDS.

[3] = tested on: human erythrocytes; settings: cited from earlier work
[4] = tested on: Botrytis cinerea; settings: 2% malt extract medium, 1.5–2×10^3 spores/ml, room temperature, 3d, visual screening; lowest concentration with no visible growth; at least two independent replicates
[5] = tested on: Pseudomonas corrugata; settings: LB-medium, about 10^5 CFU/ml, 27°C, 1–2d, OD590 nm; at least two independent replicates
[6] = tested on: Pseudomonas syringae pv. tomato; settings: LB-medium, about 10^5 CFU/ml, 27°C, 1–2d, OD590 nm; at least two independent replicates
[7] = tested on: Alternaria alternata; settings: 2% malt extract medium, 1.5–2×10^3 spores/ml, room temperature, 3d, OD590 nm; lowest concentration with no visible growth; at least two independent replicates
[8] = tested on: Xanthomonas vesicatoria; settings: LB-medium, about 10^5 CFU/ml, 27°C, 1–2d, OD590 nm; at least two independent replicates
[9] = tested on: Pseudomonas syringae pv. syringae; settings: LB-medium, about 10^5 CFU/ml, 27°C, 1–2d, OD590 nm; at least two independent replicates
[10] = tested on: Clavibacter michiganensis ssp. michiganensis; settings: LB-medium, about 10^5 CFU/ml, 27°C, 1–2d, OD590 nm; at least two independent replicates
[11] = tested on: Pectobacterium carotovorum ssp. carotovorum; settings: LB-medium, about 10^5 CFU/ml, 27°C, 1–2d, OD590 nm; at least two independent replicates
[12] = tested on: Cladosporium herbarum; settings: 2% malt extract medium, 1.5–2×10^3 spores/ml, room temperature, 3d, visual screening; lowest concentration with no visible growth; at least two independent replicates
[13] = tested on: Arabidopsis mesophyll protoplasts; test: Phytotoxicity on plant protoplasts; type: cell-based; settings: 1 h incubation, light microscope
Description: Phytotoxicity was measured on Arabidopsis mesophyll protoplasts prepared from leaves as described in [80]. 80 µl protoplast suspension containing about 5000 protoplasts were incubated with 20 µl peptide solution. Final peptide concentrations were 0, 10, 100 and 200 µg/ml. The phytotoxic effect of antimicrobial peptides was observed after 1 h with a light microscope. Hints to cell death are loss of spherical shape, chloroplast release and/or agglomeration of protoplasts.

Compound | Activity range: peptide concentrations necessary to inhibit growth of the listed bacteria strains [1] | hemoglobin release ([2]; 50 µg/ml peptide, human red blood cells) | Hemolytic activity [3] | Hemolytic activity: peptide concentration leading to 25% hemoglobin release | MIC [4] | MIC [5] | MIC [6] | MIC [7] | MIC [8] | MIC [9] | MIC [10] | MIC [11] | MIC [12] | phytotoxicity to plant protoplasts (in words) [13] | Hemolytic activity: peptide concentration leading to 25% hemoglobin release from human blood cells ([2]; 45 min, 37°C, Tris-buffer pH 7.4, 0, 20, 50, 100, 200 µg/ml, OD405 nm, 100% = 2% SDS, >200 = slight hemolytic activity at 200 µg/ml below threshold)
CC(C)C[C@H](NC(=O)[C@H](CCCNC(=N)N)NC(=O)CNC(=O)CNC(=O)[C@@H](N)CCCNC(=N)N)C(=O)N[C@H]1CSSC[C@@H](C(=O)N[C@H](C(=O)NCC(=O)N[C@@H](CCCNC(=N)N)C(N)=O)C(C)C)NC(=O)[C@H](C(C)C)NC(=O)[C@@H]2CSSC[C@H](NC(=O)[C@H](Cc3ccc(O)cc3)NC1=O)C(=O)N[C@@H](CCCNC(=N)N)C(=O)N[C@@H](CCCNC(=N)N)C(=O)N[C@@H](CCCNC(=N)N)C(=O)N[C@@H](Cc1ccccc1)C(=O)N2 [Protegrin I, reference compound] | 1 to 8 µg/mL | 25% | < 80 µg/mL | 50 µg/mL | – | – | – | – | – | – | – | – | – | – | –
KKKAARALKRAL-NH2 [SP4] | – | – | – | – | >100 µg/mL | >40 µg/mL | 10 µg/mL | >100 µg/mL | >40 µg/mL | >40 µg/mL | 40 µg/mL | >40 µg/mL | 40 µg/mL | – | –
KRKLIFLAAFLAALALFKKR-NH2 [SP15] | – | – | – | – | >100 µg/mL | >40 µg/mL | 40 µg/mL | >100 µg/mL | 20 µg/mL | >40 µg/mL | 2.5 µg/mL | >40 µg/mL | 40 µg/mL | highly ph ytotoxic | –
KRKLTLVFGVMAGVIGTKKR-NH2 [SP14] | – | – | – | – | >100 µg/mL | >40 µg/mL | 40 µg/mL | >100 µg/mL | >40 µg/mL | >40 µg/mL | 20 µg/mL | >40 µg/mL | 100 µg/mL | – | –
KRRLAAFRAFRGALKSVLKK-NH2 [SP16] | – | – | – | – | >100 µg/mL | 2.5 µg/mL | 5 µg/mL | >100 µg/mL | 5 µg/mL | 5 µg/mL | 5 µg/mL | >40 µg/mL | 20 µg/mL | – | –
KRRLIARILRLAARALVKKR-NH2 [SP13] | – | – | – | – | >100 µg/mL | – | – | >100 µg/mL | – | – | – | – | 20 µg/mL | – | –
LKALRKALKHLA-NH2 [SP12] | – | – | – | – | >100 µg/mL | >40 µg/mL | 2.5 µg/mL | >100 µg/mL | 20 µg/mL | 10 µg/mL | >40 µg/mL | >40 µg/mL | 20 µg/mL | – | >200 µg/mL
LLIKFLKRFIKH-NH2 [SP7-D] | – | – | – | – | 20 µg/mL | 5 µg/mL | – | 5 µg/mL | 10 µg/mL | – | 5 µg/mL | 40 µg/mL | 5 µg/mL | – | –
LLKALKKLLKKLL-NH2 [SP9] | – | – | – | – | >100 µg/mL | >40 µg/mL | 10 µg/mL | >100 µg/mL | 5 µg/mL | 10 µg/mL | 10 µg/mL | >40 µg/mL | 40 µg/mL | – | –
